Measured values: ChEMBL document CHEMBL4742385 (2019)

Experiments:
[1] = test system: RPMI-8226; test: Antiproliferative activity against human RPMI-8226 assessed as inhibition of cell growth at 1 uM after 8 days measured after Celltiter-Glo assay relative to control; type: functional; settings: Homo sapiens, RPMI-8226, 192 h, time 8 day
[2] = target: CDK8/Cyclin C (Homo sapiens) (UniProt P49336+P24863); test: Inhibition of human CDK8/Cyc C expressed in Sf21 cells at 1 uM measured after 1 hr by fluorescence plate reader relative to control
[3] = target: Cyclin-C/Cyclin-dependent kinase 19 (Homo sapiens) (UniProt Q9BWU1+P24863); test: Inhibition of humanGST-tagged CDK19/Cyc C expressed in Sf21 cells at 1 uM measured after 1 hr by fluorescence plate reader relative to control

inhibition [2] [%]	inhibition [3] [%]	SMILES	inhibition at 1 µM [1] [%]
97	99	Cn1cc(-c2ccncc2/C=C/C(=O)Nc2ccc(CN3CCOCC3)c(O)c2)cn1	54
105	74	O=C(/C=C/c1cnccc1-c1cnn(C2CC2)c1)Nc1ccc(CN2CC(F)(F)C2)cc1F	51
99	97	Cn1cc(-c2ccncc2/C=C/C(=O)Nc2ccc(CN3CCOCC3)c(F)c2)cn1	62
100	97	Cn1ccc2cc(NC(=O)/C=C/c3cnccc3-c3cnn(C4CC4)c3)ccc21	61
100	99	O=C(/C=C/c1cnccc1-c1cn[nH]c1)Nc1ccc(CN2CCOCC2)cc1	61
101	94	COC(C)(C)Cc1ccc(NC(=O)/C=C/c2cnccc2-c2cnn(C3CC3)c2)cc1	67
100	74	Cn1cc(-c2ccncc2/C=C/C(=O)Nc2ccc(CN3CCN4CCCC4C3)cc2)cn1 (stereo not given)	59
96	100	CCn1cc(-c2ccncc2/C=C/C(=O)Nc2ccc(CN3CCOCC3)cc2)cn1	63
107	99	O=C(/C=C/c1cnccc1-c1cnn(C2CC2)c1)Nc1ccc(CN2CC(F)C2)cc1	58
101	100	O=C(/C=C/c1cnccc1-c1ccc2nccn2c1)Nc1ccc(CN2CCOCC2)cc1	52
100	98	Cn1cc(-c2ccncc2/C=C/C(=O)Nc2ccc(CN3CCOCC3)cc2)cn1	60
96	97	O=C(/C=C/c1cnccc1-c1ccc2[nH]ncc2c1)Nc1ccc(CN2CCOCC2)cc1	55
102	102	Cn1cnc2ccc(-c3ccncc3/C=C/C(=O)Nc3ccc(CN4CCOCC4)cc3)cc21	65
99	99	Cn1cc(-c2ccncc2/C=C/C(=O)Nc2ccc(CN3CCOCC3)c(Cl)c2)cn1	53
97	101	Cn1cc(-c2ccncc2/C=C/C(=O)Nc2ccc(CN3CCOC(C)(C)C3)cc2)cn1	61
96	97	Cn1cc(-c2ccncc2/C=C/C(=O)Nc2ccc(CNC3CC(F)(F)C3)cc2)cn1	63
94	97	O=C(/C=C/c1cnccc1-c1cnn(CC2CC2)c1)Nc1ccc(CCN2CCOCC2)cc1	58
97	93	Cn1cc2cc(-c3ccncc3/C=C/C(=O)Nc3ccc(CN4CCOCC4)cc3)ccc2n1	52
97	94	O=C(/C=C/c1cnccc1-c1cnn(C2CC2)c1)Nc1ccc2c(c1)CN(CC(F)(F)C(F)(F)F)CC2	57
98	97	O=C(/C=C/c1cnccc1-c1cnn2ccccc12)Nc1ccc(CN2CCOCC2)cc1	55
99	101	O=C(/C=C/c1cnccc1-c1cnn(CC2(F)CC2)c1)Nc1ccc(CN2CCOCC2)cc1	57
99	95	CCN1CCc2ccc(NC(=O)/C=C/c3cnccc3-c3cnn(C)c3)cc2C1	56

The remaining lines, values behind:

SMILES	inhibition [2] [%]	inhibition [3] [%]	inhibition at 1 µM [1] [%]
Cn1cc(-c2ccncc2/C=C/C(=O)Nc2ccc(Cn3ccnc3)cc2)cn1	102	98	64
O=C(/C=C/c1cnccc1-c1cnn(C2CC2)c1)Nc1ccc2c(c1)CN(CC(F)(F)F)C2	103	101	47
Cn1cc(-c2ccncc2/C=C/C(=O)Nc2ccc(CC(C)(C)O)cc2)cn1	99	101	62
CC(C)(F)Cc1ccc(NC(=O)/C=C/c2cncc(F)c2-c2cnn(C3CC3)c2)cc1	99	101	62
Cn1cc(-c2ccncc2/C=C/C(=O)Nc2ccc(Oc3ccncc3)cc2)cn1	95	96	54
COc1ccc(-c2ccncc2/C=C/C(=O)Nc2ccc(CN3CCOCC3)cc2)s1	93	96	58
Cn1cc(-c2ccncc2/C=C/C(=O)Nc2ccc(CC(F)(F)F)cc2)cn1	99	92	60
COc1ncc(-c2ccncc2/C=C/C(=O)Nc2ccc(CN3CCOCC3)cc2F)s1	99	96	63
CN1CCc2ccc(NC(=O)/C=C/c3cnccc3-c3cnn(C)c3)cc2C1	100	98	52
O=C(/C=C/c1cnccc1-c1cnn(C2CC2)c1)Nc1ccc2c(c1)CN(CC(F)(F)CO)C2	102	96	65
O=C(/C=C/c1cnccc1-c1cnn(CC2CC2)c1)Nc1ccc(CN2CCOCC2)cc1	98	99	55
O=C(/C=C/c1cnccc1-c1cnn(C2CCC2)c1)Nc1ccc(CN2CCOCC2)cc1	96	96	54
Cc1noc(C)c1-c1ccc(NC(=O)/C=C/c2cnccc2-c2cnn(C3CC3)c2)c(F)c1	103	98	58
Cn1cc(-c2c(F)cncc2/C=C/C(=O)Nc2ccc3c(c2)CN(CC(C)(F)F)C3)cn1	106	100	63
CC1CN(Cc2ccc(NC(=O)/C=C/c3cnccc3-c3cnn(C)c3)cc2)CCO1 (stereo not given)	99	97	55
Cn1cnc2ccc(-c3c(F)cncc3/C=C/C(=O)Nc3ccc4c(c3)CN(CC(F)(F)F)C4)cc21	101	96	69
Cn1cnc2ccc(-c3c(F)cncc3/C=C/C(=O)Nc3ccc(CN4CC(F)(F)C4)cc3)cc21	87	101	67
Cn1cc(-c2ccncc2/C=C/C(=O)Nc2ccc3c(c2)OCC3)cn1	100	94	55
Cn1cc(-c2ccncc2/C=C/C(=O)Nc2ccc(Cn3cccn3)cc2)cn1	102	97	53
O=C(/C=C/c1cnccc1-c1cnsc1)Nc1ccc(CN2CCOCC2)cc1	90	94	51
Cn1cc(-c2ccncc2/C=C/C(=O)Nc2ccc(CNC3CC3)cc2)cn1	95	96	56
COCc1ccc(NC(=O)/C=C/c2cnccc2-c2cnn(C)c2)cc1	100	100	65
COCCn1cnc2ccc(-c3ccncc3/C=C/C(=O)Nc3ccc(CN4CCOCC4)cc3)cc21	103	97	62
